# From publication PMC8949600, “In Vitro & In Vivo Studies on Identifying and Designing Temporin-1CEh from the Skin Secretion of Rana chensinensis as the Optimised Antibacterial Prototype Drug” (Pharmaceutics, 2022)
# Where two headings read alike, the source gives them in different places. Ends that are not written are not given here.
# What was measured:
# [1] = test system: P. aeruginosa (ATCC 27853); format: cell-based
# Procedure: (§1) A measure of 5 × 10^5 CFU/mL of bacterial suspension including 2-fold dilution peptides (ranging from 1 µM to 512 µM) was incubated in 96-well plates for 16–20 h at 37 °C. For the positive and negative control, 200 mg/L of final concentration of norfloxacin and 1% DMSO were applied, respectively. […] Subsequently, 10 µL of the solution in each clear well was dropped on a Mueller–Hinton agar (MHA) plate and incubated at 37 °C for 16–20 h. The lowest concentration without colony growth was considered as the MBCs.
# (§2) Mueller–Hinton broth (MHB) at pH 6.0 and 8.0 as well as MHB containing 10% of Fetal Bovine Serum (FBS), 150 mM of NaCl, 1 mM of MgCl2 and 4 µM of FeCl3, respectively, were prepared. In particular, the pathogens were diluted by the preprepared mediums to a final concentration of 5 × 10^5 CFU/mL after growing to the logarithmic phase, and other operations followed the MIC assay.
# [2] = test system: MRSA (NCTC 12493); format: cell-based
# Procedure: as §1, §2
# [3] = test system: E. coli (ATCC 8739); format: cell-based
# Procedure: as §1, §2
# [4] = test system: S. aureus (ATCC CRM 6538); format: cell-based
# Procedure: as §1, §2
# [5] = test system: E. faecalis (NCTC 12697); format: cell-based
# Procedure: as §1, §2
# [6] = test system: K. pneumoniae (ATCC 43816); format: cell-based
# Procedure: as §1, §2
# [7] = test system: erythrocytes from defibrinated horse blood; experiment: Haemolysis assay; conditions: for haemolytic activity (in words): compared with the preceding peptide of the design series
# Text: (§4) The erythrocytes from defibrinated horse blood (TCS Biosciences Ltd., Buckingham, UK) were used to perform the haemolysis assay, as described previously [27]. Equal volumes of PBS and 2% (v/v) of the non-ionic detergent, Triton X-100 (Sigma–Aldrich, St. Louis, MO, USA) in PBS solution, were used as negative and positive controls, respectively. HC50 was defined as the mean peptide concentration producing 50% haemolysis.
# [8] = 50% TFE environment ref 44; cited from earlier work
# Text: As the same situation found in the study of Temporin B KKG6A [31], T1CEh-KK experienced an improvement in antimicrobial activity, especially for the inhibition of the growth of E. coli. In addition, the substitution by proline leads to the weakening of the antimicrobial ability of T1CEh-KKP except for against S. aureus.
# [9] = test system: S. aureus (ATCC CRM 6538) biofilm; format: cell-based
# Procedure: (§3) The anti-biofilm activities were tested on S. aureus and E. coli, as indicated previously. For the positive and negative control, 20 mg/mL of vancomycin and 1% DMSO were applied, respectively, in both assays. In addition, 0.1% Crystal Violet was used as the biofilm colouring agent.
# [10] = test system: E. coli (ATCC 8739) biofilm; format: cell-based
# Procedure: as §3
# [11] = test system: erythrocytes from defibrinated horse blood; conditions: 256 µM
# Text: as §4
substance,measurement,setting,value
KKFVDLKKIANIL-NH2 [Peptide T1CEh-KK],MBC,[1]; ATCC 27853,256 µM
same,MIC,[1]; ATCC 27853,256 µM
same,MBC,[2]; NCTC 12493,> 512 µM
same,MIC,[2]; NCTC 12493,> 512 µM
same,MBC,[3]; ATCC 8739,16 µM
same,MIC,[3]; ATCC 8739,8 µM
same,MBC,[4]; ATCC CRM 6538,> 512 µM
same,MIC,[4]; ATCC CRM 6538,256 µM
same,MBC,[5]; NCTC 12697,> 512 µM
same,MIC,[5]; NCTC 12697,64 µM
same,MBC,[6]; ATCC 43816,128 µM
same,MIC,[6]; ATCC 43816,128 µM
same,haemolytic activity (in words),[7]; horse erythrocytes,maintained the low level of haemolysis
FVDLKKIANIL-NH2 [Peptide T1CEh-t],MBC,[1]; ATCC 27853,> 512 µM
same,MIC,[1]; ATCC 27853,> 512 µM
same,MBC,[2]; NCTC 12493,> 512 µM
same,MIC,[2]; NCTC 12493,> 512 µM
same,MBC,[3]; ATCC 8739,> 512 µM
same,MIC,[3]; ATCC 8739,> 512 µM
same,MBC,[4]; ATCC CRM 6538,> 512 µM
same,MIC,[4]; ATCC CRM 6538,> 512 µM
same,MBC,[5]; NCTC 12697,> 512 µM
same,MIC,[5]; NCTC 12697,> 512 µM
same,MBC,[6]; ATCC 43816,> 512 µM
same,MIC,[6]; ATCC 43816,> 512 µM
same,haemolytic activity (in words),[7]; horse erythrocytes,completely lost
Buforin II,helicity percent,[8],43%
KKWVPLKKIANIL-NH2 [Peptide T1CEh-KKPW],MBC,[1]; ATCC 27853,64 µM
same,MIC,[1]; ATCC 27853,32 µM
same,MIC,"[1]; ATCC 27853, pH 6",64 µM
same,MIC,"[1]; ATCC 27853, pH 7",32 µM
same,MIC,"[1]; ATCC 27853, pH 8",32 µM
same,MBC,[2]; NCTC 12493,64 µM
same,MIC,[2]; NCTC 12493,16 µM
same,MIC,"[2]; NCTC 12493, pH 6",>512 µM
same,MIC,"[2]; NCTC 12493, pH 7",16 µM
same,MIC,"[2]; NCTC 12493, pH 8",128 µM
same,MBC,[3]; ATCC 8739,16 µM
same,MIC,[3]; ATCC 8739,8 µM
same,MIC,"[3]; ATCC 8739, pH 6",16 µM
same,MIC,"[3]; ATCC 8739, pH 7",8 µM
same,MIC,"[3]; ATCC 8739, pH 8",8 µM
same,MBC,[4]; ATCC CRM 6538,16 µM
same,MIC,[4]; ATCC CRM 6538,8 µM
same,MIC,"[4]; ATCC CRM 6538, pH 6",>512 µM
same,MIC,"[4]; ATCC CRM 6538, pH 7",8 µM
same,MIC,"[4]; ATCC CRM 6538, pH 8",32 µM
same,MBC,[5]; NCTC 12697,> 512 µM
same,MIC,[5]; NCTC 12697,> 512 µM
same,MIC,"[5]; NCTC 12697, pH 6",>512 µM
same,MIC,"[5]; NCTC 12697, pH 7",>512 µM
same,MIC,"[5]; NCTC 12697, pH 8",256 µM
same,MBC,[6]; ATCC 43816,16 µM
same,MIC,[6]; ATCC 43816,16 µM
same,MIC,"[6]; ATCC 43816, pH 6",256 µM
same,MIC,"[6]; ATCC 43816, pH 7",16 µM
same,MIC,"[6]; ATCC 43816, pH 8",128 µM
same,haemolysis rate,"[7]; at 256 μM, horse erythrocytes",lower than 10%
same,MBEC,[9],> 256 µM
same,MBIC,[9],16 µM
same,MBEC,[10],> 256 µM
same,MBIC,[10],16 µM
FVDLKKIANILNSIF-NH2 [Temporin-1CEh],MBC,[1]; ATCC 27853,256 µM
same,MIC,[1]; ATCC 27853,128 µM
same,MIC,"[1]; ATCC 27853, pH 6",>512 µM
same,MIC,"[1]; ATCC 27853, pH 7",128 µM
same,MIC,"[1]; ATCC 27853, pH 8",>512 µM
same,MBC,[2]; NCTC 12493,16 µM
same,MIC,[2]; NCTC 12493,16 µM
same,MIC,"[2]; NCTC 12493, pH 6",256 µM
same,MIC,"[2]; NCTC 12493, pH 7",16 µM
same,MIC,"[2]; NCTC 12493, pH 8",256 µM
same,MIC,[3]; ATCC 8739,128/128 μM
same,MIC,"[3]; ATCC 8739, pH 6",>512 µM
same,MIC,"[3]; ATCC 8739, pH 7",128 µM
same,MIC,"[3]; ATCC 8739, pH 8",>512 µM
same,MBC,[4]; ATCC CRM 6538,16 µM
same,MIC,[4]; ATCC CRM 6538,8 µM
same,MIC,"[4]; ATCC CRM 6538, pH 6",128 µM
same,MIC,"[4]; ATCC CRM 6538, pH 7",8 µM
same,MIC,"[4]; ATCC CRM 6538, pH 8",128 µM
same,MBC,[5]; NCTC 12697,32 µM
same,MIC,[5]; NCTC 12697,32 µM
same,MIC,"[5]; NCTC 12697, pH 6",>512 µM
same,MIC,"[5]; NCTC 12697, pH 7",32 µM
same,MIC,"[5]; NCTC 12697, pH 8",>512 µM
same,MBC,[6]; ATCC 43816,256 µM
same,MIC,[6]; ATCC 43816,256 µM
same,MIC,"[6]; ATCC 43816, pH 6",>512 µM
same,MIC,"[6]; ATCC 43816, pH 7",256 µM
same,MIC,"[6]; ATCC 43816, pH 8",>512 µM
same,HC50,"[7]; mean peptide concentration producing 50% haemolysis, horse erythrocytes",152.6 µM
same,haemolysis rate,[11],92.3%
same,MBEC,[9],> 256 µM
same,MBIC,[9],64 µM
KKFVPLKKIANIL-NH2 [Peptide T1CEh-KKP],MBC,[1]; ATCC 27853,> 512 µM
same,MIC,[1]; ATCC 27853,512 µM
same,MBC,[2]; NCTC 12493,256 µM
same,MIC,[2]; NCTC 12493,256 µM
same,MBC,[3]; ATCC 8739,128 µM
same,MIC,[3]; ATCC 8739,128 µM
same,MBC,[4]; ATCC CRM 6538,64 µM
same,MIC,[4]; ATCC CRM 6538,32 µM
same,MBC,[5]; NCTC 12697,> 512 µM
same,MIC,[5]; NCTC 12697,> 512 µM
same,MBC,[6]; ATCC 43816,> 512 µM
same,MIC,[6]; ATCC 43816,> 512 µM
KKWVPWKKIANIL-NH2 [Peptide T1CEh-KKPWW],MBC,[1]; ATCC 27853,16 µM
same,MIC,[1]; ATCC 27853,16 µM
same,MIC,"[1]; ATCC 27853, pH 6",16 µM
same,MIC,"[1]; ATCC 27853, pH 7",16 µM
same,MIC,"[1]; ATCC 27853, pH 8",4 µM
same,MBC,[2]; NCTC 12493,256 µM
same,MIC,[2]; NCTC 12493,32 µM
same,MIC,"[2]; NCTC 12493, pH 6",256 µM
same,MIC,"[2]; NCTC 12493, pH 7",32 µM
same,MIC,"[2]; NCTC 12493, pH 8",32 µM
same,MBC,[3]; ATCC 8739,4 µM
same,MIC,[3]; ATCC 8739,4 µM
same,MIC,"[3]; ATCC 8739, pH 6",4 µM
same,MIC,"[3]; ATCC 8739, pH 7",4 µM
same,MIC,"[3]; ATCC 8739, pH 8",4 µM
same,MBC,[4]; ATCC CRM 6538,4 µM
same,MIC,[4]; ATCC CRM 6538,4 µM
same,MIC,"[4]; ATCC CRM 6538, pH 6",32 µM
same,MIC,"[4]; ATCC CRM 6538, pH 7",4 µM
same,MIC,"[4]; ATCC CRM 6538, pH 8",4 µM
same,MBC,[5]; NCTC 12697,128 µM
same,MIC,[5]; NCTC 12697,128 µM
same,MIC,"[5]; NCTC 12697, pH 6",>512 µM
same,MIC,"[5]; NCTC 12697, pH 7",128 µM
same,MIC,"[5]; NCTC 12697, pH 8",64 µM
same,MBC,[6]; ATCC 43816,4 µM
same,MIC,[6]; ATCC 43816,4 µM
same,MIC,"[6]; ATCC 43816, pH 6",32 µM
same,MIC,"[6]; ATCC 43816, pH 7",4 µM
same,MIC,"[6]; ATCC 43816, pH 8",8 µM
same,haemolysis rates,[7]; concentration not stated at the place (gradient of Figure 4),lower than 6%
same,MBEC,[9],> 256 µM
same,MBEC,[10],> 256 µM
FVDLKKIANII-NH2 [Peptide T1CEa-t],MBC,[1]; ATCC 27853,> 512 µM
same,MIC,[1]; ATCC 27853,> 512 µM
same,MBC,[2]; NCTC 12493,> 512 µM
same,MIC,[2]; NCTC 12493,> 512 µM
same,MBC,[3]; ATCC 8739,> 512 µM
same,MIC,[3]; ATCC 8739,> 512 µM
same,MBC,[4]; ATCC CRM 6538,> 512 µM
same,MIC,[4]; ATCC CRM 6538,> 512 µM
same,MBC,[5]; NCTC 12697,> 512 µM
same,MIC,[5]; NCTC 12697,> 512 µM
same,MBC,[6]; ATCC 43816,> 512 µM
same,MIC,[6]; ATCC 43816,> 512 µM
same,haemolytic activity (in words),[7]; horse erythrocytes,completely lost
